For 25 compounds, AC50 results are on record in patent publication US20260138961A1, “MODULATORS OF MITOCHONDRIAL DNA REPLICATION” (Pretzel Therapeutics, Inc., priority 2022, published 2026).

In the test the target is T1, wild type human POLγ (POLγA:WT) (Homo sapiens, UniProt P54098).
T1 sequence (P54098 1-1239): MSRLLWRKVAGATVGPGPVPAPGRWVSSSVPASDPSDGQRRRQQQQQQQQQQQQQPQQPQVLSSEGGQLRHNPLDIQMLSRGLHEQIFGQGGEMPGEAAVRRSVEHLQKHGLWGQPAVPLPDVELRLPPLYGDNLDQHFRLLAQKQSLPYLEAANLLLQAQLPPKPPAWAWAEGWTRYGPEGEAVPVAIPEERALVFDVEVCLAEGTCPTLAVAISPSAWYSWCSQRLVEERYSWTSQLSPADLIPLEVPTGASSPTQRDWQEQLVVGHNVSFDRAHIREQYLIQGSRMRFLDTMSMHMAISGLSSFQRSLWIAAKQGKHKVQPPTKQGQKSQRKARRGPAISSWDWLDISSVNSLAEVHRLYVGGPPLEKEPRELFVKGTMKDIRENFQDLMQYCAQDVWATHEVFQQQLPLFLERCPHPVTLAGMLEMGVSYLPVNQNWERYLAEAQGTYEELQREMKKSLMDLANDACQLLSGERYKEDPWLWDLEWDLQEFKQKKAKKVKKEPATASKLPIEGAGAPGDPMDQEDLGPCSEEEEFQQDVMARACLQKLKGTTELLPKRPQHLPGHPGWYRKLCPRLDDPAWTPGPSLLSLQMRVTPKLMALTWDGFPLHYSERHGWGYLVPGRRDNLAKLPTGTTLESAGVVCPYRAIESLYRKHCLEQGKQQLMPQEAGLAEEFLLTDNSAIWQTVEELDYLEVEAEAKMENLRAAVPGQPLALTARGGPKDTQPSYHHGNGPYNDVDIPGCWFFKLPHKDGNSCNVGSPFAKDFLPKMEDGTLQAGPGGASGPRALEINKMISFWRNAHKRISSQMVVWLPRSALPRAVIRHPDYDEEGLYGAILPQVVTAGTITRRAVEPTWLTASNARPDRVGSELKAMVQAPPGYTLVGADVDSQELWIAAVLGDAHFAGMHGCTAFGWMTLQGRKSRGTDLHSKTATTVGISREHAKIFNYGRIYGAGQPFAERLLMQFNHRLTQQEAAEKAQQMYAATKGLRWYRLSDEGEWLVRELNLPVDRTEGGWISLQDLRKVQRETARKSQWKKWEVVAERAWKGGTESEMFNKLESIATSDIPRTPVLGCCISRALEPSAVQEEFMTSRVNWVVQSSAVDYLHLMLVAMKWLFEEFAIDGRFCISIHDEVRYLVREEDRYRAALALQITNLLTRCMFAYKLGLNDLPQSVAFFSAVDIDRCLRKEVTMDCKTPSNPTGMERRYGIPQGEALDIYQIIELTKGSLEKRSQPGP
T1 sequence (Q9UHN1 1-485 partner): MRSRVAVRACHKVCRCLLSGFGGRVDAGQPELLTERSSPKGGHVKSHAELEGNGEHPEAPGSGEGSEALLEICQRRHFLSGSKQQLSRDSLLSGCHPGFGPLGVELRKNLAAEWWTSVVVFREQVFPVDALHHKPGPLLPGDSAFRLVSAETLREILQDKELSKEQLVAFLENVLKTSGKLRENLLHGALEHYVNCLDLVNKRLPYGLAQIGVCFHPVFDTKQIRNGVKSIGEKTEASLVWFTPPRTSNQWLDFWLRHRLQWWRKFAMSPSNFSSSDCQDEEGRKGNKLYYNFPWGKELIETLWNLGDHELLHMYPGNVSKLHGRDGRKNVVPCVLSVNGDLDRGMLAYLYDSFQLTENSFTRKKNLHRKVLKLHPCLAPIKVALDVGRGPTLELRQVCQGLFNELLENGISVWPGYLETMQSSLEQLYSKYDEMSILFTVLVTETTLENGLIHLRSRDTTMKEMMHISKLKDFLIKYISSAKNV
The test can be described thus: DNA polymerization assay, wild type POLγ. Type of test: biochemical. The settings on record: 100 μM dNTP, read-out: WT AC50 (μM) at 100 μM. How it is done: DNA Polymerization Assay to Monitor Effects on Human Wildtype POLγ and Four Disease-Causing Mutant Variants of Human POLγ.
The ability of small molecules to stimulate the polymerase activity of POLγ was analyzed in a quantitative fluorescence SYBR Green I assay with fluorescence intensity (FI) readout.
In the presence of dNTPs, wild type human POLγ and mutant derivatives thereof were incubated with single-stranded, circular M13mp18 ssDNA hybridized to a short DNA oligonucleotide that functions as a primer for initiation of DNA synthesis. POLγ and mutant derivatives thereof will extend the primer and use the M13mp18 molecule as a template to synthesize long stretches of double-stranded DNA. SYBR Green I, which is a double-stranded DNA-binding dye, was used to quantify formation of double-stranded DNA in the reaction. When bound to double-stranded DNA, SYBR Green I fluorescence increases by up to 100-fold.
The assay was performed in the 384-well plate format. Upon addition of compounds, changes in double-stranded DNA synthesis activity can be monitored by following effects on fluorescent intensity.
The reactions also contained the accessory POLγB subunit, and the human mitochondrial single-stranded DNA binding protein (mtSSB).
The DNA template mixture used in the assay contained 0.5 nM primed M13 mp18 ssDNA, 400 nM mtSSB, 0.1 mM Tris-HCl (pH 8.0), 0.1 mM dNTP, 10 mM MgCl2, 0.1 mg/mL BSA, 1 mM TCEP solution, and 0.02% Triton X-100. The DNA template mixture for the wild type protein contained either 100 μM dNTP, 1 μM dNTP, or 0.1 μM dNTP, designated in Table 2 as 100 μM, 1 μM, and 0.1 μM, respectfully.
Microplates with compounds (0.1 μL in each well) to be tested in the assay were prepared from 10 mM compound stocks in 100% DMSO, and equal amounts of DMSO without any compound were added to positive and negative control wells.
The protein mixture was dispensed (5 μL into each well) into compound plates and incubated at 37° C. for 15 minutes. After incubation, 5 μL of the DNA template mixture was dispensed into each well. The plates were then incubated at 37° C. for 2 hours.
During incubation, a combined stop buffer and detection reagent solution was prepared. The buffer contained 25 mM EDTA (pH 8.0), 0.02% Triton X-100, and SYBR Green I [Invitrogen] diluted 10,000× (for fluorescent readout). EDTA will stop the enzymatic reaction by chelating magnesium ions.
The AC50 is the concentration at which the activity in the assay is half-maximal. As to `Cc1ccc(S(=O)(=O)Nc2csc(-c3ccccc3)n2)c(C)c1` [Example 123, 2,4-dimethyl-N-(2-phenylthiazol-4-yl)benzenesulfonamide], the AC50 stood at 3 µM.

For the compound `Cc1ccc(C)c(S(=O)(=O)Nc2cccc(C(=O)N3CCCC[C@H]3C)c2)c1` [Example 5, (R)-2,5-dimethyl-N-(3-(2-methylpiperidine-1-carbonyl)phenyl)benzenesulfonamide], the AC50 amounted to 5 µM.

On to `Cc1cc(S(=O)(=O)Nc2cccc(-c3ncc(C(N)=O)s3)c2)c(C)cc1Cl` [Example 92, 2-(3-((4-chloro-2,5-dimethylphenyl)sulfonamido)phenyl) thiazole-5-carboxamide], for which the AC50 was above 10 µM.

With `Cc1cc(S(=O)(=O)Nc2cccc(-c3nccn3C)c2)c(C)cc1Cl` [Example 19, 4-chloro-2,5-dimethyl-N-(3-(1-methyl-1H-imidazol-2-yl)phenyl)benzenesulfonamide], the AC50 was 0.8 µM.

As to `Cc1cc(Cl)ccc1S(=O)(=O)Nc1cccc(C(=O)N2CCC[C@H]2C)c1` [Example 116, (R)-4-chloro-2-methyl-N-(3-(2-methylpyrrolidine-1-carbonyl)phenyl)benzenesulfonamide], the AC50 is above 10 µM.

As to `Cc1cc(Cl)ccc1S(=O)(=O)Nc1csc(-c2ccccc2)n1` [Example 135, 4-chloro-2-methyl-N-(2-phenylthiazol-4-yl)benzenesulfonamide], the AC50 was found to be 0.6 µM.

As to `Cc1cc(S(=O)(=O)Nc2cccc(C(=O)N3CCCOC(C)(C)C3)c2)c(C)cc1Cl` [Example 106, 4-chloro-N-(3-(2,2-dimethyl-1,4-oxazepane-4-carbonyl)phenyl)-2,5-dimethylbenzenesulfonamide], the AC50 worked out at 32 µM.

Regarding `Cc1cc(S(=O)(=O)Nc2csc(-c3ccccc3)n2)c(Cl)cc1F` [Example 136, 2-chloro-4-fluoro-5-methyl-N-(2-phenylthiazol-4-yl)benzenesulfonamide], the AC50 stood at 0.8 µM.

`Cc1ccc(C)c(S(=O)(=O)Nc2cccc(C(=O)N3CCCCC3C#N)c2)c1` (stereo not shown) [Example 2, N-(3-(2-cyanopiperidine-1-carbonyl)phenyl)-2,5-dimethylbenzenesulfonamide]: the concentration at half-maximal activity (AC50) was 1 µM.

Consider `Cc1cc(S(=O)(=O)Nc2cccc(-c3nccs3)c2)c(C)cc1Cl` [Example 16, 4-chloro-2,5-dimethyl-N-(3-(thiazol-2-yl)phenyl)benzenesulfonamide], for which the AC50 amounted to 0.2 µM.

Take `Cc1cc(S(=O)(=O)Nc2cccc(C(=O)N(C)c3ccccn3)c2)c(C)cc1Cl` [Example 109, 3-((4-chloro-2,5-dimethylphenyl)sulfonamido)-N-methyl-N-(pyridin-2-yl)benzamide]: the AC50 was above 100 µM.

Turning to `Cc1cc(S(=O)(=O)Nc2nc(-c3ccccc3)no2)c(C)cc1Cl` [Example 143, 4-chloro-2,5-dimethyl-N-(3-phenyl-1,2,4-oxadiazol-5-yl)benzenesulfonamide], the AC50 was above 10 µM.

For `Cc1cc(S(=O)(=O)Nc2cccc(C(=O)NCc3ccccc3)c2)c(C)cc1Cl` [Example 11, N-benzyl-3-((4-chloro-2,5-dimethylphenyl)sulfonamido)benzamide], the AC50 came out at 29 µM.

With `Cc1ccc(C)c(S(=O)(=O)Nc2cccc(C(=O)N3CCOCC3C#N)c2)c1` (stereo not shown) [Example 7, N-(3-(3-cyanomorpholine-4-carbonyl)phenyl)-2,5-dimethylbenzenesulfonamide], the AC50 was 1 µM.

Regarding `O=S(=O)(Nc1csc(-c2ccccc2)n1)c1ccccc1Cl` [Example 125, 2-chloro-N-(2-phenylthiazol-4-yl)benzenesulfonamide], the AC50 is above 10 µM.

In the case of `O=S(=O)(Nc1csc(-c2ccccc2)n1)c1cccc(C(F)(F)F)c1` [Example 151, N-(2-phenylthiazol-4-yl)-3-(trifluoromethyl)benzenesulfonamide], the AC50 was above 10 µM.

With `Cc1cc(S(=O)(=O)Nc2nsc(-c3ccccc3)n2)c(C)cc1Cl` [Example 131, 4-chloro-2,5-dimethyl-N-(5-phenyl-1,2,4-thiadiazol-3-yl)benzenesulfonamide], the AC50 was 1 µM.

On to `O=S(=O)(Nc1csc(-c2ccccc2)n1)c1ccc2c(c1)CCO2` [Example 152, N-(2-phenylthiazol-4-yl)-2,3-dihydrobenzofuran-5-sulfonamide], for which the AC50 is above 10 µM.

As for `Cc1cc(NS(=O)(=O)c2cc(C)c(Cl)cc2C)cc(-c2ncc(C)s2)c1` [Example 110, 4-chloro-2,5-dimethyl-N-(3-methyl-5-(5-methylthiazol-2-yl)phenyl)benzenesulfonamide], the AC50 is above 100 µM.

For `Cc1ccc(C)c(S(=O)(=O)Nc2csc(-c3ccccc3)n2)c1` [Example 134, 2,5-dimethyl-N-(2-phenylthiazol-4-yl)benzenesulfonamide], the AC50 turned out to be 0.3 µM.

As for `Cc1cnc(-c2ccc(C)c(NS(=O)(=O)c3cc(C)c(Cl)cc3C)c2)s1` [Example 98, 4-chloro-2,5-dimethyl-N-(2-methyl-5-(5-methylthiazol-2-yl)phenyl)benzenesulfonamide], the AC50 was above 10 µM.

With `Cc1ccc(C)c(S(=O)(=O)Nc2cccc(C(=O)N[C@@H](C)C3CC3)c2)c1` [Example 8, (S)-N-(1-cyclopropylethyl)-3-((2,5-dimethylphenyl)sulfonamido)benzamide], the AC50 came out at 5 µM.

Turning to `Cc1cc(S(=O)(=O)Nc2ccc3c(c2)CC(=O)N3)c(C)cc1Cl` [Example 185, 4-chloro-2,5-dimethyl-N-(2-oxoindolin-5-yl)benzenesulfonamide], the concentration at half-maximal activity (AC50) was determined as 6 µM.

For the compound `Cc1cc(S(=O)(=O)Nc2cccc(C(=O)N3CCCC[C@H]3C)c2)c(C)cc1Cl` [Example 9, (R)-4-chloro-2,5-dimethyl-N-(3-(2-methylpiperidine-1-carbonyl)phenyl)benzenesulfonamide], the AC50 amounted to 2 µM.

As for `Cc1cc(S(=O)(=O)Nc2cccc(C(=O)N(C)C)c2)c(C)cc1Cl` [Example 12, 3-((4-chloro-2,5-dimethylphenyl)sulfonamido)-N,N-dimethylbenzamide], the AC50 is 5 µM.
